Measurements reported in US8388931B2, “99m Tc-labeled triphenylphosphonium derivative contrasting agents and molecular probes for early detection and imaging of breast tumors” (priority 2008, dated 2013).

Key:
[1] = Comparative study: myocardial and hepatic uptake of 99mTc-MIBI versus 99mTc-Mito10-MAG3; assay type: in vivo, rats; conditions: rat, in vivo
Description: (§1) ^99mTc-MIBI of clinical formulation was purchased from Bristol Myers Squibb. […] Dynamic images were acquired in identical fashion following 99mTc-MIBI injection.
In a comparative study, the myocardial uptake of ^99mTc-MIBI peaked at 2.70±0.4% ID/g within minutes after injection, and remained above 2.41±0.3% ID/g for at least 90 min. Comparatively, the myocardial uptake level of ^99mTc-Mito10-MAG 3 is 10, 40, and 120 fold lower than the uptake level of ^99mTc-MIBI at 3, 10 and 30 min after injection. The hepatic uptake of ^99mTc-MIBI was at 0.37±0.14% ID/g at 30 min after injection.

[2] = test system: DMBA-induced breast carcinoma; test: In vivo gamma camera imaging of DMBA-induced breast carcinoma in rats; parameters: species or system rats (female Sprague Dawley); conditions: longitudinal experiment, at the time of detection
Description: The animal protocol was approved by institutional IACUC review and followed NIH guidelines. The rat model of DMBA-induced breast carcinoma was used.
As an initial feasibility study, rats were induced with 65 mg/kg DMBA dissolved in sesame oil via a single oral gavage to the stomach. […] Static images were acquired on a GE XRT gamma camera using a high-resolution parallel-hole collimator, 512×512 matrix size, 22.5×22.5 cm field of view, 140±15 keV energy window, 100 k counts. Unexpectedly, apart from the established palpable carcinomas, additional small (millimeter size) tumors were discovered by this imaging technique in the same animals. This finding promoted a longitudinal study to investigate the early detection of neoplastic growth using ^99mTc-Mito10-MAG3.
Six 48-day-old female rats were injected with 65 mg/kg DMBA. At each week after DMBA induction, the rats were imaged using the following protocol. Each rat was anesthetized with 1.6% isoflurane in room air supplemented with oxygen. […] Dynamic images were continuously acquired at one frame per min for 90 min using the imaging parameters set forth hereinabove. The weekly imaging regiment was continued for all six rats until palpable tumors became detectable, which typically takes place between seven to nine weeks after the administration of DMBA. Due to the relatively short physical half-life of ^99mTc (6 hr), no residual signal, therefore, no cross-contamination is detectable from the previous injection the week before.
as §1
The female Sprague Dawley rats have six pairs of mammary glands, among which glands a and b are away from the hepatic/gastrointestinal region. (FIG. 9, Panel A). Since the typical biodistribution of a lipophilic radiopharmaceutical in the abdominal region precludes reliable imaging of breast tissues below the diaphragm, mammary glands shown in Panels C, D, E and F were excluded from the data analysis. This exclusion also was based on the fact that such spatial distribution of mammary glands is irrelevant to that of the human anatomy.
Imaging data analysis was carried out using an inbuilt software, by carefully drawing a region of interest (ROI) on the tumor site to determine the radioactivity counts in the ROI. […] Radioactivity counts were determined in each ROI. Tumor-to-normal and tumor-to-muscle ratios were calculated as the count ratio between the two ROIs.
The rats were sacrificed by CO2 asphyxiation and the number and location of the mammary tumors were recorded at necropsy. The tumors were dissected, with the diameter and weight measured and documented. […]

**Q.** Which peak myocardial uptake [1] does the source give for `[99Tc].[C-]#[N+]CC(C)(C)OC.[C-]#[N+]CC(C)(C)OC.[C-]#[N+]CC(C)(C)OC.[C-]#[N+]CC(C)(C)OC.[C-]#[N+]CC(C)(C)OC.[C-]#[N+]CC(C)(C)OC` [^99mTc-MIBI, ^99mTc-methoxyisobutylisonitrile, reference compound] here?
**A.** 2.70±0.4 % ID/g

**Q.** And the tumor-to-normal ratio ([2]; ROI count ratio tumor vs contralateral normal mammary gland)?
**A.** 2.04±0.49

**Q.** And the tumor-to-muscle ratio ([2]; ROI count ratio tumor vs thigh muscle)?
**A.** 5.10±0.31
